The source of these data is US20230045421A1 (priority 2018, published 2023).

In the first assay the test system is HBV rcDNA. Put plainly: HepDE19 assay with bDNA quantitation of HBV rcDNA. It is filed as cell-based, hepatitis B virus. Particulars: HepDE19 assay, inhibition of formation of rcDNA; read-out: DE-19bDNA EC50. As to the method:
HepDE19 Assay with bDNA Quantitation of HBV rcDNA:
HepDE19 cell culture system is a HepG2 (human hepatocarcinoma) derived cell line that supports HBV DNA replication and cccDNA formation in a tetracycline (Tet)-regulated manner and produces HBV rcDNA and a detectable reporter molecule dependent on the production and maintenance of cccDNA (Guo, et al., 2007, J. Virol. 81:12472-12484).
HepDE19 (50,000 cells/well) were plated in 96-well collagen-coated tissue-culture treated microtiter plates in DMEM/F12 medium supplemented with 10% fetal bovine serum, 1% penicillin-streptomycin and 1 μg/mL tetracycline and incubated in a humidified incubator at 37° C. and 5% CO2 overnight. Next day, the cells were switched to fresh medium without tetracycline and incubated for 4 hours at 37° C. and 5% CO2. The cells were treated with fresh Tet-free medium with compounds at concentrations starting at 25 μM and a serial, […], 8-point, titration series in duplicate. The final DMSO concentration in the assay was 0.5%. The plates were incubated for 7 days in a humidified incubator at 37° C. and 5% CO2. Following a 7 day-incubation, the level of rcDNA present in the inhibitor-treated wells was measured using a Quantigene 2.0 bDNA assay kit (Affymetrix, Santa Clara, Calif.) with HBV specific custom probe set and manufacturers instructions. Concurrently, the effect of compounds on cell viability was assessed using replicate plates, plated at a density of 5,000 cells/well and incubated for 4 days, to determine the ATP content as a measure of cell viability using the cell-titer glo reagent (CTG; Promega Corporation, Madison, Wis.) as per manufacturer's instructions. The plates were read using a Victor luminescence plate reader (PerkinElmer Model 1420 Multilabel counter) and the relative luminescence units (RLU) data generated from each well was calculated as % inhibition of the untreated control wells and analyzed using XL-Fit module in Microsoft Excel to determine EC50 and EC90 (bDNA) and CC50 (CTG) values using a 4-parameter curve fitting algorithm.
As to `CC(c1c[nH]c(=O)c2c(Cl)cccc12)N(C)C(=O)Nc1ccc(F)c(Cl)c1` (single isomer, unassigned) [Compound 168, 1-(1-(8-Chloro-1-oxo-1,2-dihydroisoquinolin-4-yl)ethyl)-3-(3-chloro-4-fluorophenyl)-1-methylurea], the 50% effective concentration (EC50) worked out at 70 nM.
For the molecule `CC(c1c[nH]c(=O)c2ccccc12)N(C[C@H](C)O)C(=O)Nc1ccc(F)c(Cl)c1` (single isomer, unassigned) [Compound 217], the 50% effective concentration (EC50) turned out to be 8200 nM.
For `CC(c1c[nH]c(=O)c2ccccc12)N(CCCC#N)C(=O)Nc1ccc(F)c(Cl)c1` (single isomer, unassigned) [Compound 114, 3-(3-Chloro-4-fluorophenyl)-1-(3-cyanopropyl)-1-(1-(1-oxo-1,2-dihydroisoquinolin-4-yl)ethyl)urea], the concentration giving a half-maximal response (EC50) worked out at 1900 nM.
For the molecule `CC(c1c[nH]c(=O)c2ccccc12)N(CC1CCOCC1)C(=O)Nc1ccc(F)c(Cl)c1` (single isomer, unassigned) [Compound 141, 3-(3-Chloro-4-fluorophenyl)-1-(1-(1-oxo-1,2-dihydroisoquinolin-4-yl)ethyl)-1-((tetrahydro-2H-pyran-4-yl)methyl)urea], the EC50 worked out at 3400 nM.
Take `CC(c1cnc(NCc2ncn(C)n2)c2ccccc12)N(C)C(=O)Nc1ccc(F)c(Cl)c1` (single isomer, unassigned) [Compound 246, 3-(3-Chloro-4-fluorophenyl)-1-methyl-1-(1-(1-(((1-methyl-1H-1,2,4-triazol-3-yl)methyl)amino)isoquinolin-4-yl)ethyl)urea]: the 50% effective concentration (EC50) is 140 nM.
In the case of `CCC(c1cnc(OC)c2ccccc12)N(CC)C(=O)Nc1ccc(F)c(Cl)c1` (single isomer, unassigned) [Compound 38, 3-(3-Chloro-4-fluorophenyl)-1-ethyl-1-(1-(1-methoxyisoquinolin-4-yl)propyl)urea], the EC50 worked out at 18000 nM.
Same read-out and setting: the value for `CC(c1cn(C)c(=O)c2ccccc12)N(C)C(=O)Nc1ccc(F)c(Cl)c1` (single isomer, unassigned) [Compound 182, 3-(3-Chloro-4-fluorophenyl)-1-methyl-1-(1-(2-methyl-1-oxo-1,2-dihydroisoquinolin-4-yl)ethyl)urea] was 30 nM; that for `CCNc1ncc(C(C)N(C)C(=O)Nc2ccc(F)c(Cl)c2)c2ccccc12` (single isomer, unassigned) [Compound 241, 3-(3-Chloro-4-fluorophenyl)-1-(1-(1-(ethylamino)isoquinolin-4-yl)ethyl)-1-methylurea] was 110 nM.

Staying with this assay, now noted: HepDE19 assay, inhibition of formation of relaxed circular DNA (rcDNA), bDNA quantitation; read-out: DE-19bDNA EC50.
Take `CC(c1cnc(S(C)(=O)=O)c2ccccc12)N(C)C(=O)Nc1ccc(F)c(Cl)c1` (single isomer, unassigned) [Compound 315, 3-(3-Chloro-4-fluorophenyl)-1-methyl-1-(1-(1-(methylsulfonyl)isoquinolin-4-yl)ethyl)urea]: the EC50 was found to be 800 nM.
Turning to `CC(c1cn(C)c(=O)c2cc(F)ccc12)N(C)C(=O)Nc1ccc(F)c(Cl)c1` (single isomer, unassigned) [Compound 303, 3-(3-Chloro-4-fluorophenyl)-1-(1-(7-fluoro-2-methyl-1-oxo-1,2-dihydroisoquinolin-4-yl)ethyl)-1-methylurea], the EC50 worked out at 20 nM.
The same measure, in the same setting: the value for `CC(c1c[nH]c(=O)c2c(F)c(F)ccc12)N(C)C(=O)NCc1ccc(F)c(Cl)c1` (single isomer, unassigned) [Compound 497, 3-(3-Chloro-4-fluorobenzyl)-1-(1-(7,8-difluoro-1-oxo-1,2-dihydroisoquinolin-4-yl)ethyl)-1-methylurea] was 260 nM.
Still for that read-out and setting: the result for `CNC(=O)c1ncc(C(C)N(C)C(=O)Nc2ccc(F)c(Cl)c2)c2ccccc12` (single isomer, unassigned) [Compound 317, 4-(1-(3-(3-Chloro-4-fluorophenyl)-1-methylureido)ethyl)-N-methylisoquinoline-1-carboxamide] reads 77 nM.
On the same count and under the same terms, the result for `CC(c1c[nH]c(=O)c2ccc(F)cc12)N(CCS(N)(=O)=O)C(=O)Nc1ccc(F)c(Cl)c1` (single isomer, unassigned) [Compound 381, 2-(3-(3-Chloro-4-fluorophenyl)-1-(1-(6-fluoro-1-oxo-1,2-dihydroisoquinolin-4-yl)ethyl)ureido) ethane-1-sulfonamide] reads 1400 nM; that for `CCN(C(=O)Nc1ccc(F)c(Cl)c1)C(C)c1c[nH]c(=O)c2cc(F)c(F)cc12` (single isomer, unassigned) [Compound 407, 3-(3-Chloro-4-fluorophenyl)-1-(1-(6,7-difluoro-1-oxo-1,2-dihydroisoquinolin-4-yl)ethyl)-1-ethylurea], 6 nM; that for `CCN(C(=O)Nc1ccc(F)c(F)c1)C(C)c1c[nH]c(=O)c2cc(F)c(F)cc12` (single isomer, unassigned) [Compound 423, 1-(1-(6,7-Difluoro-1-oxo-1,2-dihydroisoquinolin-4-yl)ethyl)-3-(3,4-difluorophenyl)-1-ethylurea], 21 nM.
Consider `CC(c1c[nH]c(=O)c2ccc(F)cc12)N(CC1COC(C)(C)OC1)C(=O)Nc1ccc(F)c(Cl)c1` (single isomer, unassigned) [Compound 283, 3-(3-Chloro-4-fluorophenyl)-1-((2,2-dimethyl-1,3-dioxan-5-yl)methyl)-1-(1-(6-fluoro-1-oxo-1,2-dihydroisoquinolin-4-yl)ethyl)urea], for which the EC50 was found to be 43 nM.
In the case of `CC(C)CN(C(=O)Nc1ccc(F)c(Cl)c1)C(C)c1cnc(-n2cncn2)c2ccccc12` (single isomer, unassigned) [Compound 345, 1-(1-(1-(1H-1,2,4-triazol-1-yl)isoquinolin-4-yl)ethyl)-3-(3-chloro-4-fluorophenyl)-1-isobutylurea], the concentration giving a half-maximal response (EC50) worked out at 9.5 nM.
Take `CC(c1c[nH]c(=O)c2c(F)c(F)ccc12)N(C)C(=O)Nc1ccc(F)c(C#N)c1` (single isomer, unassigned) [Compound 471, 3-(3-Cyano-4-fluorophenyl)-1-(1-(7,8-difluoro-1-oxo-1,2-dihydroisoquinolin-4-yl)ethyl)-1-methylurea]: the concentration giving a half-maximal response (EC50) was 20 nM.
On the same count and under the same terms, the result for `CC(c1c[nH]c(=O)c2c(F)c(F)ccc12)N(C)C(=O)Nc1ccc(F)c(Cl)c1` (single isomer, unassigned) [Compound 331, 3-(3-Chloro-4-fluorophenyl)-1-(1-(7,8-difluoro-1-oxo-1,2-dihydroisoquinolin-4-yl)ethyl)-1-methylurea] reads 15 nM.
Take `CC(c1c[nH]c(=O)c2c(F)c(F)ccc12)N(C)C(=O)Nc1ccc(F)c(C(F)F)c1` (single isomer, unassigned) [Compound 504, 1-(1-(7,8-Difluoro-1-oxo-1,2-dihydroisoquinolin-4-yl)ethyl)-3-(3-(difluoromethyl)-4-fluorophenyl)-1-methylurea]: the EC50 amounted to 15 nM.

Staying with this assay, now noted: Hepatitis B virus, HepDE19, HepDE19 assay, inhibition of formation of rcDNA; read-out: DE-19bDNA EC50.
Consider `O=C(Nc1ccc(F)c(Cl)c1)N(Cc1c[nH]c(=O)c2ccccc12)C1CC1` [Compound 42, 3-(3-Chloro-4-fluorophenyl)-1-cyclopropyl-1-((1-oxo-1,2-dihydroisoquinolin-4-yl)methyl)urea], for which the EC50 came to 810 nM.
Still for that read-out and setting: the result for `CCCN(C(=O)Nc1ccc(F)c(C)c1)[C@H](C)c1c[nH]c(=O)c2ccccc12` [Compound 43, (R)-3-(4-Fluoro-3-methylphenyl)-1-(1-(1-oxo-1,2-dihydroisoquinolin-4-yl)ethyl)-1-propylurea] reads 10 nM.
The same measure, in the same setting: the value for `CC(c1cnc(NCCN)c2ccccc12)N(C)C(=O)Nc1ccc(F)c(Cl)c1` (racemic) [Compound 244, 1-(1-(1-((2-aminoethyl)amino)isoquinolin-4-yl)ethyl)-3-(3-chloro-4-fluorophenyl)-1-methylurea] was 2700 nM.
For the molecule `C[C@H](c1c[nH]c(=O)c2ccccc12)N(C)C(=O)Nc1ccc(F)c(F)c1` [Compound 92, (R)-3-(3,4-Difluorophenyl)-1-methyl-1-(1-(1-oxo-1,2-dihydroisoquinolin-4-yl)ethyl)urea], the half-maximal effective concentration (EC50) turned out to be 230 nM.

Staying with this assay, now noted: read-out: DE-19bDNA EC50; HepDE19 assay, inhibition of formation of relaxed circular DNA (rcDNA), bDNA quantitation.
As to `CCN(C(=O)Nc1ccccc1)C(C)c1c[nH]c(=O)c2cc(F)c(F)cc12` (single isomer, unassigned) [Compound 405, 1-(1-(6,7-Difluoro-1-oxo-1,2-dihydroisoquinolin-4-yl)ethyl)-1-ethyl-3-phenylurea], the half-maximal effective concentration (EC50) came to 58 nM.
Same read-out and setting: the result for `CC(c1c[nH]c(=O)c2c(F)c(F)ccc12)N(C)C(=O)Nc1cccc(F)c1` (single isomer, unassigned) [Compound 455, 1-(1-(7,8-Difluoro-1-oxo-1,2-dihydroisoquinolin-4-yl)ethyl)-3-(3-fluorophenyl)-1-methylurea] reads 6300 nM.
